Test results reported in patent publication US20150361400A1, “COMPOSITIONS AND METHODS FOR MAINTAINING AND IMPROVING PANCREATIC ISLET CELL FUNCTION AND STABILITY” (WAKE FOREST UNIVERSITY HEALTH SCIENCES, priority 2013, published 2015).

Assays:
[1] = tested on: isolated cultured human islets; assay: RNA-Seq gene expression in isolated cultured human islets with or without Raloxifene; assay type: cell-based; settings: for % decrease in gene expression: 10 nM Raloxifene vs control
Description: FIG. 1: Inhibition of estrogen receptor signaling prevents dedifferentiation in cultured islets. Islets were either untreated or treated with an estrogen receptor selective estrogen receptor modulator (SERM; 10 nM Raloxifene). RNA-Seq analysis of cultured islets was performed following 4 days in culture. Raloxifene treatment was for one day on the final day of culture. Expression levels of individual genes were calculated by the method of RPKM (reads per kilobase per million mapped reads). Data is represented as the log of the ratio (Islets-Raloxifene: Islets-no treatment) where positive values indicate an increase in gene expression with Raloxifene treatment. […] (IL-8, CXXL6, SERPINB2, OLFM4).
Following isolation, the islet cell clusters are cultured in Connaught Medical Research Laboratory 1066 medium supplemented with 10 nM Raloxifene. These are the conditions described in the legend to FIG. 1.
An inflammatory gene expression profile is evoked following human islet isolation and culture and suppressed by Raloxifene treatment. Gene expression was assessed in isolated cultured human islets on multiple days following the isolation procedure. Islets were cultured in standard CMRL media with or without the addition of Raloxifene and gene expression profiles were assessed by RNA-Seq. In table 2A, the progressive increase of NFkB-target gene expression is observed over consecutive days in culture. Of note, significant increases in canonical NFkB targets (CCL2, CCL20, IL1B) as well as NFkB coordinately regulated gene clusters, such as the innate immunity gene cluster (APOL1-APOL6) were observed. In table 2B, Raloxifene treatment (10 nM) suppressed gene expression of the innate immunity gene cluster (APOL1-APOL6) which is typically observed to increase with the isolation and culture of human islets. Gene expression was assessed with RNA-Seq and quantification of gene transcripts is represented as RPKM ([…]). Note, three genes (APOL1, APOL2, and APOL6) in the innate immunity gene cluster were each reduced by Raloxifene treatment.

autoimmune diabetes = settings: treatment of recipient NOD.scid mice before transfer of BDC-2.5 clone; cited from earlier work

O=C(c1ccc(OCCN2CCCCC2)cc1)c1c(-c2ccc(O)cc2)sc2cc(O)ccc12 [Raloxifene]
endocrine phenotype of isolated islet cultures [1]: preserved the endocrine phenotype
gene expression of the innate immunity gene cluster (APOL1-APOL6) ([1]; 10 nM Raloxifene): suppressed
% decrease in gene expression ([1]; APOL1 gene): 15%
RPKM (Ral) ([1]; APOL1 gene, 10 nM Raloxifene, control 2.1): 1.8 RPKM
% decrease in gene expression ([1]; APOL2 gene): 68%
RPKM (Ral) ([1]; APOL2 gene, 10 nM Raloxifene, control 13.6): 4.3 RPKM
% decrease in gene expression ([1]; APOL6 gene): 41%
RPKM (Ral) ([1]; APOL6 gene, 10 nM Raloxifene, control 1.5): 0.9 RPKM
expression of housekeeping genes ([1]; GAPDH, ACTB, B2M, 10 nM, one day on final day of 4 days culture): without effect
increase in expression of inflammatory genes and genes associated with a dedifferentiation profile ([1]; IL-8, CXXL6, SERPINB2, OLFM4, 10 nM, one day on final day of 4 days culture): prevented
expression of genes associated with a differentiated phenotype ([1]; SYT8, INS, 10 nM, one day on final day of 4 days culture): increased expression

CCN1C=CC=C/C1=C1/C2=NC(=C(c3cccc[n+]3CC)C3=NC(=C(c4cccc[n+]4CC)c4ccc([n-]4)C(c4cccc[n+]4CC)=C4C=CC1=N4)C=C3)C=C2.[Cl-].[Cl-].[Cl-].[Cl-].[Cl-].[Mn+3] [AEOL-10113]
onset of diabetes (disease) (autoimmune diabetes): significantly delayed or prevented altogether
